Here are results for 10 molecules from patent US20130266605A1, “PEPTIDE INHIBITORS OF CD40L SIGNALING AND USES THEREFOR” (PHYLOGICA LIMITED, priority 2010, published 2013).

Like-named read-outs stand apart in the source and are kept apart here. Non-standard residues stand in square brackets, D forms with d. Residues, ends and D or L forms follow the SMILES beside them.

For one test, the target named is T1, CD40L-CD40 interaction (Homo sapiens, UniProt P29965).
T1 sequence (P29965 113-261 limits assumed): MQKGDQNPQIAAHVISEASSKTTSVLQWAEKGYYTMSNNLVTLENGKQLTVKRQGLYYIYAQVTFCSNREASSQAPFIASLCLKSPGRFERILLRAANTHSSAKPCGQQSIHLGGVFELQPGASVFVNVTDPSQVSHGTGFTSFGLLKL
Kind of test: Chemiluminescent proximity assay (Alphascreen). In kind it is binding. The protocol:
In one example, the Alphascreen assay (PerkinElmer) was employed according to the manufacturer's instructions.
Homodimers and heterodimers were also assayed by chemiluminescent proximity assay for their ability to inhibit CD40L-CD40 interaction.
(In Alpha technology, singlet oxygen from a donor bead excites a nearby acceptor bead.)

Test [1] addresses CD40L-induced CD86 expression on primary B-cells (UniProt P29965). Nature of the test: Inhibition of CD40L-induced CD86 expression on primary B-cells (FACS). The settings on record: in words.
Procedure: In one example, the ability of a peptide, analog or derivative of the invention to inhibit or reduce or delay expression of CD86 on primary B-cells was determined in the presence and absence of the peptides, analogs and derivatives of the invention. In particular, CD86 expression was determined by FACS.
As a control in these assays, LPS-induced expression of CD86 mediated by the Toll-like receptors TLR 2/4, and TNFα-induced cytoxicity, were also assayed to exclude effects mediated by ligands other than CD40L.
The next test concerns the target T2, CD40 ligand (UniProt P29965 108-261, limits assumed).
T2 construct: Used immobilised, soluble, or biotinylated on streptavidin beads; also called CD154; soluble CD40L
T2 sequence (looked up): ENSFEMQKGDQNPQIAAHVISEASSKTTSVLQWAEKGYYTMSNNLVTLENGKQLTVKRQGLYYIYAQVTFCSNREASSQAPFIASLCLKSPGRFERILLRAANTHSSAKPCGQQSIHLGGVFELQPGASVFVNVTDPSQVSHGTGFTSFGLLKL
Nature of the test: Alphascreen, unmodified peptide, inhibition of CD40L/CD40-Fc.

The mark [2] stands for this setting: PEGylated chiral (retro-inverted) analog, read-out: EC50(PEGylated) CD40L/CD40-Fc/BAF617.

Chain of CD40L-induced CD86 expression on primary B-cells (P29965 whole entry): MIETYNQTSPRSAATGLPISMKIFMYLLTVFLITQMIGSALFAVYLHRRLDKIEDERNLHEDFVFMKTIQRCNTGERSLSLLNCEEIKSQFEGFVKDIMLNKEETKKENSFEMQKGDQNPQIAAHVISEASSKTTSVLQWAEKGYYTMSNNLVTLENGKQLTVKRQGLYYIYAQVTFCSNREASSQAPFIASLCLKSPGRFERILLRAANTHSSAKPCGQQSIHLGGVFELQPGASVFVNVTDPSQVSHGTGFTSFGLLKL
Chain of CD40L-induced CD86 expression on primary B-cells (P25942 21-277 partner): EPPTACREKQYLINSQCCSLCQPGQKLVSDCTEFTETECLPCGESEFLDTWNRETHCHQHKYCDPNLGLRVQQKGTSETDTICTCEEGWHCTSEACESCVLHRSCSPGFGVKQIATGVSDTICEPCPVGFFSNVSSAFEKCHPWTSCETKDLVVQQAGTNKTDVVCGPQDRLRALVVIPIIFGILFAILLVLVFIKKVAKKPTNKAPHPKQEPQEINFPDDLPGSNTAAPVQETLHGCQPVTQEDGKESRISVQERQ

In the case of SKVRMQFDIINFPVNVGFLVFSH [CD40L M1_42rd], at CD40L-CD40 interaction (setting [2]), the EC50 was found to be 16 nM. As for `CC[C@H](C)[C@H](NC(=O)[C@H](CS)NC(=O)[C@H](Cc1ccccc1)NC(=O)[C@@H](NC(=O)[C@H](CC(N)=O)NC(=O)[C@H](CCCCN)NC(=O)[C@@H](NC(=O)[C@H](CO)NC(=O)[C@H](Cc1ccccc1)NC(=O)[C@@H]1CCCN1C(=O)[C@@H](N)Cc1c[nH]cn1)[C@@H](C)CC)C(C)C)C(=O)N[C@@H](Cc1c[nH]c2ccccc12)C(=O)N[C@@H](CC(N)=O)C(=O)N[C@@H](Cc1ccccc1)C(=O)N[C@@H](Cc1ccccc1)C(=O)N[C@@H](CO)C(=O)N[C@H](C(=O)N[C@@H](Cc1ccc(O)cc1)C(=O)O)C(C)C` [CD40L M1_6] (H-HPFSIKNVFCIWNFFSVY-OH; N-terminus and C-terminus assumed), the “inhibition of the interaction between CD40L and CD40” value at CD40L-CD40 interaction (in words, Alphascreen proximity assay) is “inhibition”. Take `CC[C@@H](C)[C@@H](NC(=O)[C@@H](Cc1ccccc1)NC(=O)[C@@H](C)NC(=O)[C@H](NC(=O)[C@@H](CC(C)C)NC(=O)[C@H]1CCCN1C(=O)[C@@H](Cc1ccccc1)NC(=O)[C@@H](CCC(N)=O)NC(=O)[C@@H](Cc1ccc(O)cc1)NC(=O)[C@@H](CC(C)C)NC(=O)[C@@H](Cc1c[nH]cn1)NC(=O)[C@@H](CCCNC(=N)N)NC(=O)[C@@H](CS)NC(=O)[C@H](N)CCCNC(=N)N)C(C)C)C(=O)N[C@H](CO)C(=O)N[C@H](Cc1c[nH]c2ccccc12)C(=O)N[C@H](CCC(N)=O)C(=O)N[C@@H](C(=O)N1CCC[C@@H]1C(=O)N[C@H](Cc1ccccc1)C(=O)N[C@H](Cc1ccccc1)C(=O)N[C@H](Cc1c[nH]c2ccccc12)C(=O)NCC(=O)N[C@H](Cc1ccc(O)cc1)C(=O)N[C@H](CCCCN)C(=O)N[C@H](CC(C)C)C(=O)N[C@@H](C(=O)N[C@H](Cc1c[nH]cn1)C(=O)N[C@H](CO)C(=O)N[C@H](CCCNC(=N)N)C(=O)N[C@H](Cc1ccc(O)cc1)C(=O)N1CCC[C@@H]1C(=O)N[C@@H](C(=O)N[C@H](Cc1ccccc1)C(=O)N1CCC[C@@H]1C(=O)N[C@H](CC(C)C)C(=O)O)C(C)C)C(C)C)C(C)C` [CD40L M1_18rd] (H-[dR][dC][dR][dH][dL][dY][dQ][dF][dP][dL][dV][dA][dF][dI][dS][dW][dQ][dV][dP][dF][dF][dW]G[dY][dK][dL][dV][dH][dS][dR][dY][dP][dV][dF][dP][dL]-OH; N-terminus and C-terminus assumed): the “inhibition of CD40L-induced CD86 expression on primary B-cells” value in test [1] was “enhanced inhibition”.

Turning to `CC[C@H](C)[C@H](NC(=O)[C@H](CO)NC(=O)[C@H](Cc1ccccc1)NC(=O)[C@@H]1CCCN1C(=O)[C@@H]1CCCN1C(=O)[C@H](CO)NC(=O)[C@H](Cc1ccccc1)NC(=O)[C@H](Cc1ccccc1)NC(=O)[C@H](Cc1ccccc1)NC(=O)[C@H](CC(C)C)NC(=O)[C@H](CC(C)C)NC(=O)[C@@H](N)CC(C)C)C(=O)N[C@@H](Cc1ccccc1)C(=O)N[C@@H](CS)C(=O)N[C@@H](Cc1ccccc1)C(=O)N[C@@H](CO)C(=O)N[C@@H](CC(C)C)C(=O)N[C@H](C(=O)N[C@H](C(=O)N[C@@H](CC(C)C)C(=O)N[C@@H](CO)C(=O)O)[C@@H](C)O)[C@@H](C)O` [CD40L M7_189] (H-LLLFFFSPPFSIFCFSLTTLS-OH), the EC50 at CD40L-CD40 interaction (monomeric non-PEGylated (unmodified) base peptide; 50% reduction in control emission at 520-620 nm; read-out: EC50nmodified) CD40L/CD40-Fc/BAF617) was 120 nM.

With AQWWHHRFSFLGAIQFFERGAAD [CD40L M1_30rd], at CD40L-CD40 interaction (setting [2]), the EC50 was 24 nM. The same measure, in the same setting: the value for “RVWNSFWLHIGGRQVGSPVFLSYFRNRVWRP [CD40L M1_50rd]” was 568 nM. Still for that read-out and setting: the value for YVSFFNWISFVNKISFPH [CD40L M1_6rd] was 20 nM; that for FYLYDRRFSSYFRFLFFLNYRPP [CD40L M1_9rd] was 14 nM. The molecule HSFVLFGVNVPFNIIDFQMRVKC (Base peptide) [CD40L M1_42] displayed an EC50 with CD40 ligand of 200 nM. On the same count and under the same terms, the same measure for LLYVKVICFFCMLVQYNNFQTYK (Base peptide) [CD40L M2_159]: 120 nM.
